According to patent US20110143958A1, “Methods of Identifying Modulators of Ubiquitin Ligases” (priority 2008, published 2011):

Test system: E3 ubiquitylation reaction (E1, E2, and E3)
Experiment: E3 ligase assay using 5′-IAF-UBA1, inhibition assays
Type: biochemical, human
Details: E1, E2, and E3 pre-incubated with various concentrations for 30 minutes at room temperature; detection with 5′-IAF-UBA1 and immunoblot; FIGS. 9A-D
Method: E3 ligase reactions contained 10 nM GST-Praja1, 500 nM 6× His-SUMO-CARP2 or 500 nM 6× His-SUMO-MuRF1 as E3s, 50 nM E1, 150 nM UbcH5c (E2), 500 ng Ubiquitin, 2 mM ATP, 50 mM Tris-HCl pH8.0, 5 mM MgCl2, 0.1 mM DTT. For measuring SCF^Atrogin-1 E3 ligase activity, the reaction was assembled essentially as described above except that the E3 ligase contained 6× His-SUMO-Atrogin-1, Cullin-1 (“Cul1”), Roc-1 (“Rbx-1”) and 6× His-Skp1 (250 nM each). In order to obtain large amounts of the Cul1-Rbx1 complex for the SCF complex, we used a procedure to overexpress the Cul1-Rbx1 complex in E. coli. Zheng, et al., Nature, 416(6882):703-9 (2002). The Cul1 gene was split into two halves (residues 1-410 and residues 411-776) and co-expressed with GST-tagged Rbx1 as three different polypeptide chains. A PCR product encoding Skp1 was generated using the primers 5′-[…]-3′ (SEQ ID NO:28) and 5′-[…]-3′ (SEQ ID NO:29) and human Skp1 cDNA as the template. […]
For inhibition assays, reactions containing E1, E2, and E3 were pre-incubated with various concentrations of NEM and ubistatin A for 30 minutes at room temperature before initiating the reaction by adding ubiquitin and ATP. […] The wells were washed with 1× PBS and readings were taken using a fluorescence plate reader with excitation and emission wavelengths of 485 nm and 535 nm, respectively. […]

| Compound | inhibition of the E3 ubiquitylation assay |
| --- | --- |
| CCN1C(=O)C=CC1=O [NEM] | inhibited |
| O=C(Nc1ccc(/C=C/c2ccc(NC(=O)c3cc(S(=O)(=O)O)c4cccnc4c3O)cc2S(=O)(=O)O)c(S(=O)(=O)O)c1)c1cc(S(=O)(=O)O)c2cccnc2c1O [Ubistatin A] | inhibited |
